Assay results as given in patent US20140273139A1, “Direct Fermentation of Biomass to Fuel Precursors” (Innovative Metabolism Inc., priority 2013, published 2014).

Experiments:
[1] = system: P. chrysosporium and K. marxianus; test: Solid-state fermentation of corn stover by consortium in the presence of carbon monoxide; assay type: cell-based, Phanerochaete chrysosporium / Kluyveromyces marxianus; settings: 90% CO and 10% air, first 27 days
Method: In this example, solvent-producing fermentation was initiated by introduction of a mix of air and CO, a competitive inhibitor of cytochrome c oxidase. Corn stover was prepared as described in Example 7. A mixture of P. chrysosporium conidiospores and mycelia harvested from agar medium, and 1 ml of K. marxianus from an overnight culture in YPD broth were added to the stover. The mixture was transferred to the rotating drum of the solid-state bioreactor under sterile conditions. The bioreactor was sealed and placed in a 44° C. incubator.
Growth was established under aerobic conditions (10 ml/min of air was flowed through the bioreactor for 17 hours). Fermentation was initiated by flowing a mixture comprised of 90% CO and 10% air through the bioreactor. During the first 27 days productivity peaked at 2.3×10^−5 g solvent/hr/g biomass remaining and yield for the period was 5.7% of biomass consumed (FIG. 8).

[2] = system: P. chrysosporium; test: Solid-state fermentation of corn stover by P. chrysosporium in the presence of carbon monoxide; assay type: cell-based, Phanerochaete chrysosporium; settings: 10% air and 90% CO, through Day 44
Method: In this example solvent fermentation was initiated by introduction of a mix of 10% air and 90% CO. Corn stover was prepared as described in Example 7. P. chrysosporium conidiospores and mycelia harvested from agar medium were added to the stover and the mixture was transferred to the rotating drum of the solid-state bioreactor under sterile conditions. The bioreactor was sealed and placed in a 44° C. incubator. The volume of gas flow remained constant at 10 ml/min for the entire experiment.
The fermentor was run aerobically for 45 hours to establish growth. Between hour 45 and Day 44 a gas mix comprised of 10% air and 90% CO was flowed through the system. Fungal metabolic activity was restored by flowing air through the system from Day 51-55. From Day 57-65 the fermentation was run anaerobically in the absence of CO. Fungal metabolic activity was again restored by aerobic growth from Day 65-68, and then anaerobic fermentation was continued from Day 68-82.

[3] = system: P. chrysosporium; test: Submerged liquid fermentation under reduced oxygen with the mitochondrial inhibitor rotenone (GC-MS, standard curves); assay type: cell-based, Phanerochaete chrysosporium
Method: In this experiment P. chrysosporium was grown from conidiospores in submerged liquid culture. The growth medium was Highley's Basal salts [Wymelenberg, A. V., et al., The Phanerochaete chrysosporium secretome: database predictions and initial mass spectrometry peptide identifications in cellulose-grown medium. J Biotechnol, 2005. 118(1): p. 17-34.] supplemented with 0.1% yeast extract (YE) and 2% glucose. Conidiospores were inoculated in 50 ml of liquid medium in a 250 ml Erlenmyer flask which was then capped with a 3-piece fermentation lock to prevent evaporation of volatile products and to allow the culture to incubate in a reduced oxygen environment. The culture was incubated statically.
A large mass of fungus was produced and remained suspended near the top of the medium. Samples were collected, transferred to glass septum vials and heated to 60° C. Samples were analyzed on a 6890N GC system with a 5975 Mass Selective Detector (Agilent) using a PH Innowax column. […] Standard curves were performed for each solvent. The concentrations in the fermentation broth were determined to be 0.74 mM for acetone, 1.8 mM for isopropanol, and 1.9 mM for ethanol. This experiment provided the first indication that P. chrysosporium was capable of fermenting sugars to acetone and isopropanol.

[4] = system: P. chrysosporium; test: Submerged liquid fermentation in the presence of air and gaseous mitochondrial inhibitor (GC-MS of headspace); assay type: cell-based, Phanerochaete chrysosporium; settings: aerobic culture, NO target concentration 1 μM, 2% glucose, 37° C.
Method: In this experiment P. chrysosporium was grown from conidiospores in submerged liquid culture. The growth medium was Highley's Basal salts [Wymelenberg, A. V., et al., The Phanerochaete chrysosporium secretome: database predictions and initial mass spectrometry peptide identifications in cellulose-grown medium. J Biotechnol, 2005. 118(1): p. 17-34.] supplemented with 0.1% yeast extract (YE) and 2% glucose. Conidiospores were inoculated in liquid medium in 3 neck flasks. The temperature was maintained at 37° C. The cultures were mixed using magnetic stir bars and gasses (air, nitrogen, and air supplemented with nitric oxide (NO)) were bubbled through the medium using stainless steel needles. Fungi were grown: 1) aerobically; 2) anaerobically; and 3) aerobically with NO delivered to a target concentration of 1 μM. Cultures were sampled daily and analyzed using GC-MS (FIG. 3). P. chrysosporium grew rapidly forming large, encapsulated masses of material.
The identity of the ethanol peak was confirmed by MS analysis. Samples were transferred to glass septum vials and heated to 60° C. A gas-tight syringe was used to sample 50 μl from the headspace. Samples were analyzed on a 6890N GC system with a 5975 Mass Selective Detector (Agilent) using a PH Innowax column.

[5] = rotenone-treated, reduced oxygen, static culture

[C-]#[O+] [CO, carbon monoxide]
solvents produced [1]: Ethanol was the only solvent produced in significant quantities
peak productivity ([1]; 44° C.): 2.3×10^−5 g solvent/hr/g biomass remaining
solvent yield ([1]; 44° C.): 5.7 % of biomass consumed
acetone share of solvent mix [2]: 28%
ethanol share of solvent mix [2]: 72%
isopropanol share of solvent mix [2]: only trace amounts

C=C(C)[C@H]1Cc2c(ccc3c2O[C@@H]2COc4cc(OC)c(OC)cc4[C@@H]2C3=O)O1 [Rotenone, rotenone]
solvents produced in the presence of the inhibitor ([3]; liquid culture, oxygen-limited conditions, glucose): production of acetone, isopropanol and ethanol
acetone concentration in the fermentation broth [3, 5]: 0.74 mM
ethanol concentration in the fermentation broth [3, 5]: 1.9 mM
isopropanol concentration in the fermentation broth [3, 5]: 1.8 mM

nitric oxide
ethanol production by the culture [4]: appeared to enable ethanol production in the presence of dissolved oxygen
